Measured values: patent US9169254B2, “Spiroimidazolone derivative” (Chugai Seiyaku Kabushiki Kaisha, priority 2009, dated 2015)

Molecular target: T1, human PTH1 receptor (Homo sapiens, UniProt Q03431)
T1 sequence (Q03431 27-593): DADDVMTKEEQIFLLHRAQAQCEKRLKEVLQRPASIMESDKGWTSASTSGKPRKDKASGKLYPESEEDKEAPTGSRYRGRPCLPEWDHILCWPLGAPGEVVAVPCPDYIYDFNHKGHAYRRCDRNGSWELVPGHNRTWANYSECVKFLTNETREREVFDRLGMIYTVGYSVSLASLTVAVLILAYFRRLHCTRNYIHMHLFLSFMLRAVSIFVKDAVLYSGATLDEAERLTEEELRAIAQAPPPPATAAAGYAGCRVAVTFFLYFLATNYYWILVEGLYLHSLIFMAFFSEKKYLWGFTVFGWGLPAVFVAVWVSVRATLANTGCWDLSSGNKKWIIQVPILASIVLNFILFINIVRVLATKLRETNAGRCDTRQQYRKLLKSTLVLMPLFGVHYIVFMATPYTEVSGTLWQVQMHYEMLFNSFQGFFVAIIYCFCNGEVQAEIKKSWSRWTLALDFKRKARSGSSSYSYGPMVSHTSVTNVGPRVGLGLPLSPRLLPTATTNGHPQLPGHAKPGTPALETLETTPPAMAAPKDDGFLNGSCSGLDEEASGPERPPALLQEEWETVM
Test: In vitro cAMP signal activity in HKRK-B7 cells (LLC-PK1 cells overexpressing the human PTH1 receptor)
Type: cell-based
Conditions: HKRK-B7 cells; compound at 1×10^−3 M; cAMP produced as percentage of that produced by hPTH(1-34) at 100 nM

SMILES	cAMP production activity (%)
Cc1cc(C(=O)N(C)C)ccc1CCS(=O)(=O)N1CCC2(CC1)N=C(c1cscn1)NC2=O [Compound 121, 3,N,N-trimethyl-4-[2-(4-oxo-2-thiazol-4-yl-1,3,8-triaza-spiro[4.5]dec-1-ene-8-sulfonyl)-ethyl]-benzamide]	5.8
CCCOCCCCCC1=NC2(CCN([S@TB18](=O)(=O)/C=C/c3c(C)cc(N(C)C(N)=O)cc3C)CC2)C(=O)N1 [Compound 1124, 1-(3,5-dimethyl-4-{(E)-2-[4-oxo-2-(5-propoxy-pentyl)-1,3,8-triaza-spiro[4.5]dec-1-ene-8-sulfonyl]-vinyl}-phenyl)-1-methyl-urea]	119
Cc1cc(C(=O)N2CCC(C)(O)CC2)cc(C)c1/C=C/S(=O)(=O)N1CCC2(CC1)N=C(c1ccc(C(F)(F)F)c(OC(C)(C)C(F)(F)F)c1)NC2=O [Compound 1209, 8-{(E)-2-[4-(4-hydroxy-4-methyl-piperidine-1-carbonyl)-2,6-dimethyl-phenyl]-ethenesulfonyl}-2-[3-(2,2,2-trifluoro-1,1-dimethyl-ethoxy)-4-trifluoromethyl-phenyl]-1,3,8-triaza-spiro[4.5]dec-1-en-4-one]	94
Cc1cc(N(C)C(=O)CN(C)C)cc(C)c1/C=C/S(=O)(=O)N1CCC2(CC1)N=C(c1cccc(OC(F)(F)F)c1)NC2=O [Compound 608, 2-dimethylamino-N-(3,5-dimethyl-4-{(E)-2-[4-oxo-2-(3-trifluoromethoxy-phenyl)-1,3,8-triaza-spiro[4.5]dec-1-ene-8-sulfonyl]-vinyl}-phenyl)-N-methyl-acetamide]	20
CC(=O)Nc1ccc(/C=C/S(=O)(=O)N2CCC3(CC2)N=C(C2CCC(C)CC2)NC3=O)c(OC(C)C)c1 (stereo not drawn) [Compound 506, N-(3-isopropoxy-4-{(E)-2-[2-(4-methyl-cyclohexyl)-4-oxo-1,3,8-triaza-spiro[4.5]dec-1-ene-8-sulfonyl]-vinyl}-phenyl)-acetamide]	83
Cc1cc(N(CCO)C(=O)CO)ccc1/C=C/S(=O)(=O)N1CCC2(CC1)N=C(c1cccc(OC(F)(F)F)c1)NC2=O [Compound 722, 2-Hydroxy-N-(2-hydroxy-ethyl)-N-(3-methyl-4-{(E)-2-[4-oxo-2-(3-trifluoromethoxy-phenyl)-1,3,8-triaza-spiro[4.5]dec-1-ene-8-sulfonyl]-vinyl}-phenyl)-acetamide]	60
O=C1NC(C2CCCCC2)=NC12CCN(S(=O)(=O)/C=C/c1ccc3[nH]ccc3c1)CC2 [Compound 178, 2-Cyclohexyl-8-[(E)-2-(1H-indol-5-yl)-ethenesulfonyl]-1,3,8-triaza-spiro[4.5]dec-1-en-4-one]	29
Cc1cc(C(=O)N2CCC(C)(O)CC2)cc(C)c1/C=C/S(=O)(=O)N1CCC2(CC1)N=C(c1cccc(COc3cccc(C(F)(F)F)c3)c1)NC2=O [Compound 1205, 8-{(E)-2-[4-(4-hydroxy-4-methyl-piperidine-1-carbonyl)-2,6-dimethyl-phenyl]-ethenesulfonyl}-2-[3-(3-trifluoromethyl-phenoxymethyl)-phenyl]-1,3,8-triaza-spiro[4.5]dec-1-en-4-one]	83
Cc1cc(N(C)C(N)=O)ccc1CCS(=O)(=O)N1CCC2(CC1)N=C(c1cccc(OC(F)(F)F)c1)NC2=O [Compound 301, 1-methyl-1-(3-methyl-4-{2-[4-oxo-2-(3-trifluoromethoxy-phenyl)-1,3,8-triaza-spiro[4.5]dec-1-ene-8-sulfonyl]-ethyl}-phenyl)-urea]	72
Cc1ccccc1C(=O)CS(=O)(=O)N1CCC2(CC1)N=C(C1CCCCC1)NC2=O [Compound 1375, 2-Cyclohexyl-8-(2-oxo-2-o-tolyl-ethanesulfonyl)-1,3,8-triaza-spiro[4.5]dec-1-en-4-one]	23
CC(=O)N[C@@H]1CCN(C(=O)c2ccc(CCS(=O)(=O)N3CCC4(CC3)N=C(c3cccc(C(F)(F)F)c3)NC4=O)c(C)c2)C1 [Compound 353, N—[(R)-1-(3-methyl-4-{2-[4-oxo-2-(3-trifluoromethyl-phenyl)-1,3,8-triaza-spiro[4.5]dec-1-ene-8-sulfonyl]-ethyl}-benzoyl)-pyrrolidin-3-yl]-acetamide]	120

The next lines start with the values.

cAMP production activity (%)	SMILES
83	Cc1cc(C(=O)N2CC[C@@H](O)C2)cc(C)c1/C=C/S(=O)(=O)N1CCC2(CC1)N=C(c1cccc(OC(F)(F)F)c1)NC2=O [Compound 401, 8-{(E)-2-[4-((R)-3-hydroxy-pyrrolidine-1-carbonyl)-2,6-dimethyl-phenyl]-ethenesulfonyl}-2-(3-trifluoromethoxy-phenyl)-1,3,8-triaza-spiro[4.5]dec-1-en-4-one]
65	Cc1cc(NCCO)ccc1CCS(=O)(=O)N1CCC2(CC1)N=C(c1cccc(C(F)(F)F)c1)NC2=O [Compound 160, 8-{2-[4-(2-hydroxy-ethylamino)-2-methyl-phenyl]-ethanesulfonyl}-2-(3-trifluoromethyl-phenyl)-1,3,8-triaza-spiro[4.5]dec-1-en-4-one]
27	O=C1NC(C2CCCCC2)=NC12CCN(S(=O)(=O)CCc1ccc3[nH]c(=O)sc3c1)CC2 [Compound 663, 2-cyclohexyl-8-[2-(2-oxo-2,3-dihydro-benzothiazol-6-yl)-ethanesulfonyl]-1,3,8-triaza-spiro[4.5]dec-1-en-4-one]
85	Cc1cc(N(C)C(N)=O)cc(C)c1/C=C/S(=O)(=O)N1CCC2(CC1)N=C(CCCCCCCCCCCC(N)=O)NC2=O [Compound 1173, 12-(8-{(E)-2-[2,6-dimethyl-4-(1-methyl-ureido)-phenyl]-ethenesulfonyl}-4-oxo-1,3,8-triaza-spiro[4.5]dec-1-en-2-yl)-dodecanoic acid amide]
63	Cc1cc(C(=O)N2CC(F)(F)C(F)(F)C2)ccc1CCS(=O)(=O)N1CCC2(CC1)N=C(C1CCCCC1)NC2=O [Compound 283, 2-cyclohexyl-8-{2-[2-methyl-4-(3,3,4,4-tetrafluoro-pyrrolidine-1-carbonyl)-phenyl]-ethanesulfonyl}-1,3,8-triaza-spiro[4.5]dec-1-en-4-one]
72	Cc1cc(C(=O)N(C)C)ccc1CCS(=O)(=O)N1CCC2(CC1)N=C(C1(C(F)(F)F)CC1)NC2=O [Compound 136, 3,N,N-trimethyl-4-{2-[4-oxo-2-(1-trifluoromethyl-cyclopropyl)-1,3,8-triaza-spiro[4.5]dec-1-ene-8-sulfonyl]-ethyl}-benzamide]
71	CCCOC1CCC(C2=NC3(CCN(S(=O)(=O)CCc4ccc(NC(C)=O)cc4C)CC3)C(=O)N2)CC1 (stereo not drawn) [Compound 911, N-(3-methyl-4-{2-[4-oxo-2-(4-propoxy-cyclohexyl)-1,3,8-triaza-spiro[4.5]dec-1-ene-8-sulfonyl]-ethyl}-phenyl)-acetamide]
60	O=C(CNc1ccc(CCS(=O)(=O)N2CCC3(CC2)N=C(C2CCCCC2)NC3=O)c(C(F)(F)F)c1)NCCCCO [Compound 660, 2-{4-[2-(2-cyclohexyl-4-oxo-1,3,8-triaza-spiro[4.5]dec-1-ene-8-sulfonyl)-ethyl]-3-trifluoromethyl-phenylamino}-N-(4-hydroxy-butyl)-acetamide]
12	Cc1cc(C(=O)N(C)C)ccc1CCS(=O)(=O)N1CCC2(CC1)N=C(c1cccc(OC(F)(F)F)c1)N=C2N(C)C [Compound 899, 4-{2-[4-dimethylamino-2-(3-trifluoromethoxy-phenyl)-1,3,8-triaza-spiro[4.5]deca-1,3-diene-8-sulfonyl]-ethyl}-3,N,N-trimethyl-benzamide]
65	O=C1NC(C2CCCCC2)=NC12CCN(S(=O)(=O)c1ccc(Br)s1)CC2 [Compound 65, 8-(5-bromo-thiophene-2-sulfonyl)-2-cyclohexyl-1,3,8-triaza-spiro[4.5]dec-1-en-4-one]
77	Cc1cc(N(C)c2ncc[nH]2)cc(C)c1CCS(=O)(=O)N1CCC2(CC1)N=C(C1CCC(C)CC1)NC2=O (stereo not drawn) [Compound 868, 8-(2-{4-[(1H-imidazol-2-yl)-methyl-amino]-2,6-dimethyl-phenyl}-ethanesulfonyl)-2-(4-methyl-cyclohexyl)-1,3,8-triaza-spiro[4.5]dec-1-en-4-one]
46	O=C(CO)NCc1ccc(CCS(=O)(=O)N2CCC3(CC2)N=C(C2CCCCC2)NC3=O)cc1 [Compound 659, N-{4-[2-(2-cyclohexyl-4-oxo-1,3,8-triaza-spiro[4.5]dec-1-ene-8-sulfonyl)-ethyl]-benzyl}-2-hydroxy-acetamide]

Same assay, conditions: HKRK-B7 cells; compound at 1×10^−3 M; cAMP produced as percentage of that produced by hPTH(1-34) at 100 nM; 0.1 µM

SMILES	cAMP production activity (%)
Cc1cc2ccc1CCS(=O)(=O)N1CCC3(CC1)N=C(NC3=O)c1cc(cc(C(F)(F)F)c1)OCCC=CCCCCN(C)C2=O [Compound 1411]	38
